Legend:
[1] = target: human α2C receptor (Homo sapiens (Human), UniProt P18825); assay: Antagonism against adrenoreceptor α2C (luminescence, recombinant CHO cell line, noradrenaline stimulation); assay type: cell-based; settings: 20 nM noradrenaline
Description: B-1a) Antagonism Against Adrenoreceptors
Antagonism against the adrenoreceptor α1A was tested using a recombinant human α1A receptor CHO cell line which additionally also recombinantly expresses mtAeq (mitochondrial aequorin). Antagonism against the adrenoreceptor α2A was tested using a recombinant human α2A-Gα16 receptor fusion protein CHO cell line (PerkinElmer Life Sciences) which additionally also recombinantly expresses mtAeq. Antagonism against the adrenoreceptor α2B was tested using a recombinant human α2B receptor CHO cell line (PerkinElmer Life Sciences) which additionally also recombinantly expresses mtAeq. Antagonism against the adrenoreceptor α2C was tested using a recombinant human α2C receptor CHO cell line which additionally also recombinantly expresses a chimaric G protein (Gαqi3) and mtOb (mitochondrial obelin).
The cells were cultivated at 37° C. and 5% CO2 in Dulbecco's modified Eagle's Medium/NUT mix F12 with L-glutamine which additionally contains 10% (v/v) inactivated foetal calf serum, 1 mM sodium pyruvate, 0.9 mM sodium bicarbonate, 50 U/ml penicillin, 50 μg/ml streptomycin, 2.5 μg/ml amphotericin B and 1 mg/ml Geneticin. The cells were passaged with enzyme-free Hank's-based cell dissociation buffer. All cell culture reagents used were from Invitrogen (Carlsbad, USA).
Luminescence measurements were carried out on white 384-well microtitre plates. 2000 cells/well were plated in a volume of 25 μl and cultivated for one day at 30° C. and 5% CO2 in cell culture medium with coelenterazine (α2A and α2B: 5 μg/ml; α1a/c and α2C: 2.5 μg/ml). Serial dilutions of the test substances (10 μl) were added to the cells. After 5 minutes, noradrenaline was added to the cells (35 μl; final concentrations: 20 nM (α1a/c, and α2C) or 200 nM (α2A and α2B)), and the emitted light was measured for 50 seconds using a CCD (charge-coupled device) camera (Hamamatsu Corporation, Shizuoka, Japan) in a light-tight box. The test substances were tested up to a maximum concentration of […] The IC50 values were calculated from the appropriate dose-response curves.

[2] = system: diabetic (ZDFfa/fa) and healthy rats (Wistar); assay: Assay of perfusion-enhancing substances (microcirculation), laser doppler probe at the paw; assay type: in vivo, rat; settings: single oral dose; for MED skin temperature: minimum effective dose for significant increase of skin temperature (ttest); for MED microcirculation: minimum effective dose with significantly improved microcirculation vs placebo; for MED microcirculation / factor by which microcirculation is improved at MED compared to placebo: 30 min after administration; for factor by which microcirculation is improved at MED compared to placebo: at the MED
Excerpt: B-2e) Assay of Perfusion-Enhancing Substances (Microcirculation)
In diabetic (ZDFfa/fa) and healthy rats (Wistar), a laser doppler probe was fastened under anaesthesia conditions (isoflurane anaesthesia) at the sole of the paw for measuring cutaneous microcirculation. The test animals were once treated orally with the test substances. During the experiment, microperfusion and temperature of the lower extremities were documented continuously. Here, a temperature-sensitive laser doppler probe (Periflux, O2C) was fastened with adhesive to the paws of the animals, allowing the measurement of microperfusion and skin temperature. The microcirculation measurement values were measured on both paws 30 min after oral administration of the test substance. […] Also stated is the MED for the significant increase of skin temperature (ttest).
Microcirculation data for adrenoreceptor α2c antagonist of Example 8 and for the comparative substance ORM12741, an AR α2c antagonist from Orion, are shown in Table 2: […]

[3] = system: conscious female Wistar rats; assay: Radiotelemetric measurement of blood pressure and heart rate of conscious rats; assay type: in vivo, rat
Excerpt: B-2l) Radiotelemetric Measurement of Blood Pressure and Heart Rate of Conscious Rats
A commercially available telemetry system from Data Sciences International DSI, USA, was employed for the measurements on conscious rats described below. The system consists of 3 main components: (1) implantable transmitters (Physiotel® telemetry transmitter), (2) receivers (Physiotel® receiver), which are linked via a multiplexer (DSI Data Exchange Matrix) to a (3) data acquisition computer. The telemetry system makes it possible to continuously record blood pressure, heart rate and body motion of conscious animals in their usual habitat.
The studies were conducted on adult female Wistar rats with a body weight of >200 g. After transmitter implantation, the experimental animals were housed singly in type III Makrolon® cages. They had free access to standard feed and water. The day/night rhythm in the test laboratory was set by changing the illumination of the room.
The telemetry transmitters used (PA-C40, DSI) were surgically implanted under aseptic conditions in the experimental animals at least 14 days before the first experimental use. […]
Each of the instrumented rats living in the system was assigned a separate receiving antenna (RPC-1 Receiver, DSI). […] The signals emitted were detected online by a data acquisition system (Dataquest™ A.R.T. for Windows, DSI) and processed accordingly.
In the standard procedure, the following were measured for 10-second periods in each case: (1) systolic blood pressure (SBP), (2) diastolic blood pressure (DBP), (3) mean arterial pressure (MAP) and (4) heart rate (HR) and (5) activity (ACT). These parameters were measured over 24 hours after administration.
The acquisition of measurements was repeated under computer control at 5-minute intervals. The source data obtained as absolute values were corrected in the diagram with the currently measured barometric pressure (Ambient Pressure Reference Monitor, APR-1, DSI). […]

human α2C receptor, sequence (P18825 whole entry): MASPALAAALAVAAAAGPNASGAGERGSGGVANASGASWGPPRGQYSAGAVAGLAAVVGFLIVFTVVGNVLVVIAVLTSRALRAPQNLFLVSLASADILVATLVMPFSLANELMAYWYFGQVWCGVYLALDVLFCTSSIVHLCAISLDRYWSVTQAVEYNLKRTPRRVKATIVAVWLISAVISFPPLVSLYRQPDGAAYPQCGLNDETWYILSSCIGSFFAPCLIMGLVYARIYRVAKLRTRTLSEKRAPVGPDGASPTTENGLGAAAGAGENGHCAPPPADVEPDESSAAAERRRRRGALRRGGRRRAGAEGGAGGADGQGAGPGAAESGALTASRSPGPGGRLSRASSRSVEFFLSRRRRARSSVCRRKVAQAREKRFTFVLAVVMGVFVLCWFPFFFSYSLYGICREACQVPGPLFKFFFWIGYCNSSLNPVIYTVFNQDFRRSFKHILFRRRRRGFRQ

SMILES | IC50 [1] | MED skin temperature [2] | MED microcirculation [2] | factor by which microcirculation is improved at MED compared to placebo [2] | also measured
CC1CN(c2ccc(C(=O)N3CCC(N4CCc5ccccc5C4)CC3)cn2)CC(C)O1 (centres unmarked) [Example 11, [4-(3,4-Dihydroisoquinolin-2(1H)-yl)piperidin-1-yl][6-(2,6-dimethylmorpholin-4-yl)pyridin-3-yl]methanone] | 11 nM |  |  |  | 
O=C(O)[C@H]1CCCN1c1ccc(C(=O)N2CCC(N3CCc4ccccc4C3)CC2)cn1 [Example 6, 1-(5-{[4-(3,4-Dihydroisoquinolin-2(1H)-yl)piperidin-1-yl]carbonyl}pyridin-2-yl)-D-proline] | 27 nM | no effect | no effect | ≤ 1.3 × | 
CC1CN(c2ccc(C(=O)N3CCC(N4CCc5ccccc5C4)CC3)cn2)CC(C)O1 (centres unmarked) [Example 12, [4-(3,4-Dihydroisoquinolin-2(1H)-yl)piperidin-1-yl][6-(2,6-dimethylmorpholin-4-yl)pyridin-3-yl]methanone] | 21 nM |  |  |  | 
CC1(C)CN(c2ccc(C(=O)N3CCC(N4CCc5ccccc5C4)CC3)cn2)CCO1 [Example 13, [4-(3,4-Dihydroisoquinolin-2(1H)-yl)piperidin-1-yl][6-(2,2-dimethylmorpholin-4-yl)pyridin-3-yl]methanone] | 53 nM |  |  |  | 
O=C(c1ccc(N2CCS(=O)(=O)CC2)nc1)N1CCC(N2CCc3ccccc3C2)CC1 [Example 4, [4-(3,4-Dihydroisoquinolin-2(1H)-yl)piperidin-1-yl][6-(1,1-dioxidothiomorpholin-4-yl)pyridin-3-yl]methanone] | 24 nM | 0.1 mg/kg | 0.1 mg/kg | 2.4 × | haemodynamic effects (blood pressure, heart rate) ([3]; conscious rats, oral administration, 24 hours telemetry): no haemodynamic effects; heart rate ([3]; oral dose of 3 and 10 mg/kg): slight transient increase in the heart rate
COCCNc1ccc(C(=O)N2CCC(N3CCc4ccccc4C3)CC2)cn1 [Example 1, [4-(3,4-Dihydroisoquinolin-2-(1H)-yl)piperidin-1-yl]{6-[(2-methoxyethyl)amino]pyridin-3-yl}-methanone] | 22 nM | 1 mg/kg | 1 mg/kg | 1.8 × | 
O=C(c1ccc(N2CCOC(C(F)(F)F)C2)nc1)N1CCC(N2CCc3ccccc3C2)CC1 (centres unmarked) [Example 14, [4-(3,4-Dihydroisoquinolin-2(1H)-yl)piperidin-1-yl]{6-[2-(trifluoromethyl)morpholin-4-yl]pyridin-3-yl}methanone] | 23 nM |  |  |  | 
COCCNc1ccc(C(=O)N2CCC(N3CCc4ccc(F)cc4C3)CC2)cn1 [Example 2, [4-(7-Fluoro-3,4-dihydroisoquinolin-2(1H)-yl)piperidin-1-yl]{6-[(2-methoxyethyl)amino]pyridin-3-yl}methanone] | 13 nM |  |  |  | 
COC1CCN(c2ccc(C(=O)N3CCC(N4CCc5cc(F)ccc5C4)CC3)cn2)C1 (centres unmarked) [Example 8, [4-(6-Fluoro-3,4-dihydroisoquinolin-2(1H)-yl)piperidin-1-yl][6-(3-methoxypyrrolidin-1-yl)pyridin-3-yl]methanone] | 58 nM |  |  |  | 
O=C(c1ccc(N2CCOCC2)nc1)N1CCC(N2CCc3ccccc3C2)CC1 [Example 3, [4-(3,4-Dihydroisoquinolin-2(1H)-yl)piperidin-1-yl][6-(morpholin-4-yl)pyridin-3-yl]methanone] | 9 nM |  |  |  | 
O=C(c1ccc(N2CC3(COC3)C2)nc1)N1CCC(N2CCc3ccccc3C2)CC1 [Example 10, [4-(3,4-Dihydroisoquinolin-2(1H)-yl)piperidin-1-yl][6-(2-oxa-6-azaspiro[3.3]hept-6-yl)pyridin-3-yl]methanone] |  | 0.03 mg/kg | 0.03 mg/kg | 2.1 × | 
O=C(c1ccc(N2CC3(C2)CS(=O)(=O)C3)nc1)N1CCC(N2CCc3ccccc3C2)CC1 [Example 15, [4-(3,4-Dihydroisoquinolin-2(1H)-yl)piperidin-1-yl][6-(2,2-dioxido-2-thia-6-azaspiro[3.3]hept-6-yl)pyridin-3-yl]methanone] | 53 nM |  |  |  | 
COc1ccc2c(c1)CCN(C1CCN(C(=O)c3ccc(N4CCC(OC)C4)nc3)CC1)C2 (centres unmarked) [Example 9, [4-(6-Methoxy-3,4-dihydroisoquinolin-2(1H)-yl)piperidin-1-yl][6-(3-methoxypyrrolidin-1-yl)pyridin-3-yl]methanone] | 11 nM |  |  |  | 
CC[C@@H](CO)Nc1ccc(C(=O)N2CCC(N3CCc4ccccc4C3)CC2)cn1 [Example 7, [4-(3,4-Dihydroisoquinolin-2(1H)-yl)piperidin-1-yl](6-{[(2S)-1-hydroxybutan-2-yl]amino}pyridin-3-yl)methanone] | 21 nM |  |  |  | 
COC[C@H]1CCCN1c1ccc(C(=O)N2CCC(N3CCc4ccccc4C3)CC2)cn1 [Example 5, [4-(3,4-Dihydroisoquinolin-2(1H)-yl)piperidin-1-yl]{6-[(2R)-2-(methoxymethyl)pyrrolidin-1-yl]pyridin-3-yl}methanone] | 65 nM |  |  |  | 
COC[C@@]1(C)CCCN2CCc3c(oc4ccccc34)[C@@H]21 [ORM-12741, reference compound] |  | 0.01 mg/kg | 0.1 mg/kg | 1.9 × | blood pressure ([3]; 10 mg/kg, oral): additional reduction in blood pressure

From patent publication US9624198B2, “Substituted piperidinyltetrahydroquinolines” (Bayer Pharma Aktiengesellschaft, priority 2013, dated 2017)
